Experimental findings from ChEMBL document CHEMBL1201862, “PubChem BioAssay data set” (2004) are described below.

Test systems include HT-29; UACC-62; MOLT-4; SK-MEL-2; CCRF-CEM; COLO 205; A498; SR; HOP-62; NCI-H522; HOP-92; SNB-19; NCI-H226; RPMI-8226; HCT-116; EKVX; LOX IMVI; M14.
Common to all, as to experiment: NCI-60 cell line screen, 48 h

SMILES strings stand for the structures.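 Exposure lasted 48 hours, with cells grown in 96-well plates and compounds tested at five concentrations. GI50 is the concentration that inhibits growth by half.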 Activity calls are given as the source filed them. No stated cut-off is given here; in the data, active = GI50 up to about 1.1 µM and inactive = higher.

For `Cc1nc(N(CCO)CCO)c2sc(=S)n(-c3ccccc3)c2n1`, the GI50 in the assay on HT-29, with UACC-62, with MOLT-4, with SK-MEL-2, with CCRF-CEM and in the assay with COLO 205 was > 100 µM (inactive) each time. For the same compound, the GI50 with A498, in the assay with SR, in the assay on HOP-62, with NCI-H522, in the assay with HOP-92 and with SNB-19 was > 100 µM (inactive) throughout. Moreover, the GI50 in the assay with NCI-H226, with RPMI-8226 and in the assay with HCT-116 was > 100 µM (inactive) each time.

Turning to `Cc1nc2ccccc2c(=O)n1CC(=O)O`, the GI50 in the assay on HT-29, in the assay with UACC-62, with MOLT-4, in the assay on SK-MEL-2, with CCRF-CEM and in the assay on EKVX was > 100 µM (inactive) each time. Also, the GI50 in the assay on COLO 205, in the assay on A498, with HOP-62, in the assay on LOX IMVI, in the assay with NCI-H522 and in the assay on HOP-92 was > 100 µM (inactive) in each case. For the same compound, the GI50 with SNB-19, with NCI-H226, in the assay on RPMI-8226 and in the assay with HCT-116 was > 100 µM (inactive) throughout.

Take `Nc1ccc2c(c1)C1=NNC(=O)CC1C2` (stereo unspecified): the GI50 with HT-29, in the assay with UACC-62, with SK-MEL-2, in the assay with CCRF-CEM, in the assay on EKVX and in the assay on COLO 205 was > 100 µM (inactive) in each case. Moreover, the GI50 is 60.4 µM (inactive) in the assay with A498; > 100 µM (inactive) in the assay on HOP-62; > 100 µM (inactive) with LOX IMVI; > 100 µM (inactive) with NCI-H522; > 100 µM (inactive) in the assay with HOP-92; > 100 µM (inactive) in the assay on SNB-19. In addition, the results for the GI50 in the assay with NCI-H226, in the assay on RPMI-8226 and in the assay with HCT-116 were > 100 µM (inactive), > 40.4 µM (inactive) and > 100 µM (inactive), respectively.

With `Cc1nc2c(nc1Cl)nc(Oc1ccc(Cl)cc1)c1ccccc12`, the GI50 with HT-29 was > 100 µM (inactive); in the assay with UACC-62 it was 48.2 µM (inactive); with M14, 85.7 µM (inactive); with MOLT-4, > 100 µM (inactive); in the assay with SK-MEL-2, > 100 µM (inactive); in the assay on CCRF-CEM, > 100 µM (inactive). Besides, the GI50 is > 100 µM (inactive) in the assay on EKVX; > 100 µM (inactive) in the assay on COLO 205; > 100 µM (inactive) with SR; 28.6 µM (inactive) in the assay with HOP-62; 59.6 µM (inactive) with LOX IMVI; 50.9 µM (inactive) in the assay on NCI-H522. Moreover, the GI50 in the assay with SNB-19 is 82.8 µM (inactive); with NCI-H226, 27.9 µM (inactive); in the assay with RPMI-8226, > 100 µM (inactive); with HCT-116 it was 41.7 µM (inactive).

For the compound `CC12CCC3C(CCC4CC(OC(=O)Cc5ccc(N(CCCl)CCCl)cc5)CCC43C)C1CCC(=O)N2` (stereo unspecified), the GI50 in the assay on HT-29 was 16.4 µM (inactive); in the assay on M14 it was 17.7 µM (inactive); with MOLT-4, 7.41 µM (inactive); in the assay with SK-MEL-2 it was 15.5 µM (inactive); in the assay on CCRF-CEM, 6.25 µM (inactive); in the assay on EKVX it was 16.4 µM (inactive). In addition, the GI50 with COLO 205 is 17.3 µM (inactive); in the assay with A498, 16.8 µM (inactive); with SR, 3.67 µM (inactive); with NCI-H522, 14.7 µM (inactive); in the assay with HOP-92 it was 16.1 µM (inactive); in the assay on SNB-19, 18.3 µM (inactive). Also, the figures for the GI50 with NCI-H226, in the assay with RPMI-8226 and in the assay on HCT-116 were 15.7 µM (inactive), 15.2 µM (inactive) and 15.1 µM (inactive), respectively.

Regarding `O=C1C2c3[nH]c4ccccc4c3C3CCSCC3C2C(=O)N1c1ccccc1` (stereo unspecified), the GI50 was > 100 µM (inactive) in the assay on HT-29; > 100 µM (inactive) in the assay on UACC-62; > 100 µM (inactive) in the assay with M14; 87.3 µM (inactive) with MOLT-4; > 100 µM (inactive) with SK-MEL-2; > 100 µM (inactive) in the assay with CCRF-CEM. Besides, the GI50 with EKVX, in the assay with COLO 205, in the assay on A498, in the assay on HOP-62, in the assay with LOX IMVI and with NCI-H522 was > 100 µM (inactive) in each case. Moreover, the GI50 with HOP-92, with SNB-19, with NCI-H226, with RPMI-8226 and in the assay on HCT-116 was > 100 µM (inactive) throughout.

Turning to `O=C(c1ccccc1)c1cc(Cl)ccc1NCn1nnc2ccccc21`, the GI50 is 51.1 µM (inactive) with HT-29; > 100 µM (inactive) with UACC-62; 88.7 µM (inactive) in the assay on M14; 42.1 µM (inactive) in the assay on MOLT-4; 29 µM (inactive) with SK-MEL-2; 77.4 µM (inactive) with CCRF-CEM. The GI50 is > 100 µM (inactive) in the assay with EKVX; 64.6 µM (inactive) in the assay with COLO 205; 65.2 µM (inactive) with A498; 35.6 µM (inactive) in the assay on SR; > 100 µM (inactive) in the assay with HOP-62; 73.3 µM (inactive) in the assay on LOX IMVI. Moreover, the GI50 was 47.8 µM (inactive) in the assay on NCI-H522; 91.4 µM (inactive) in the assay on HOP-92; > 100 µM (inactive) in the assay on SNB-19; > 100 µM (inactive) in the assay with NCI-H226; 41.6 µM (inactive) in the assay with RPMI-8226.

`CC(C)NC(=O)OCc1nnn2c1CCC2`: the GI50 in the assay on HT-29, with UACC-62, with M14, with MOLT-4, with SK-MEL-2 and in the assay on CCRF-CEM was > 100 µM (inactive) in each case. In addition, the GI50 with EKVX is > 100 µM (inactive); with SR, > 100 µM (inactive); in the assay on HOP-62 it was > 100 µM (inactive); in the assay on LOX IMVI, > 100 µM (inactive); in the assay on NCI-H522 it was > 100 µM (inactive); in the assay on HOP-92, 74 µM (inactive). Also, the GI50 in the assay on HCT-116 was > 100 µM (inactive).

As for `O=S(O)CCCSSSCCCS(=O)O`, the GI50 in the assay on HT-29, in the assay on UACC-62, in the assay on M14, in the assay with MOLT-4, in the assay on SK-MEL-2 and with CCRF-CEM was > 100 µM (inactive) in each case. Moreover, the GI50 in the assay on EKVX, in the assay on A498, in the assay on SR, in the assay with HOP-62, in the assay with LOX IMVI and in the assay with NCI-H522 was > 100 µM (inactive) in each case. Moreover, the GI50 in the assay with SNB-19 and with HCT-116 was > 100 µM (inactive) in each case.

`C=C1CC(OC)(C(OC)C(=O)N[C@H]2OCO[C@H]3C2O[C@H](C[C@@H](COC)OC)C(C)(C)C3OC)O[C@H](C)[C@@H]1C` (stereo partly specified): the GI50 is 0.491 µM (active) in the assay on HT-29; 1.01 µM (active) in the assay with UACC-62; 0.522 µM (active) in the assay with MOLT-4; 1.15 µM (inactive) in the assay on SK-MEL-2; 0.21 µM (active) in the assay on CCRF-CEM; 0.805 µM (active) in the assay with COLO 205. Besides, the GI50 was 1.03 µM (active) in the assay on A498; 1.04 µM (active) in the assay with HOP-62; 0.617 µM (active) in the assay with LOX IMVI; 0.521 µM (active) in the assay with HOP-92; 0.611 µM (active) in the assay on SNB-19; 1.16 µM (inactive) in the assay on NCI-H226. Also, the GI50 in the assay on RPMI-8226 is 0.111 µM (active); in the assay with HCT-116, 0.624 µM (active).

Regarding `CC(=O)NC1=C(C)C(=O)c2c(nc3n2CCC3OC(=O)c2ccccc2)C1=O` (stereo unspecified), the GI50 in the assay with HT-29 was 0.514 µM (active); with UACC-62, 1.92 µM (inactive); with M14, 1.98 µM (inactive); in the assay on MOLT-4, 1.99 µM (inactive); with SK-MEL-2, 1.7 µM (inactive); in the assay with CCRF-CEM, 1.19 µM (inactive). The GI50 in the assay with EKVX is 1.63 µM (inactive); with COLO 205, 4 µM (inactive); in the assay on A498 it was 12.7 µM (inactive); in the assay with SR, 2.37 µM (inactive); with HOP-62 it was 2.34 µM (inactive); in the assay on LOX IMVI, 1.51 µM (inactive). Besides, the GI50 in the assay on NCI-H522 was 2.04 µM (inactive); in the assay with HOP-92 it was 1.9 µM (inactive); in the assay with SNB-19, 2.69 µM (inactive); in the assay on NCI-H226, 2.05 µM (inactive); in the assay on RPMI-8226, 2.04 µM (inactive); in the assay with HCT-116, 1.94 µM (inactive).

For the compound `CC(=O)O[C@H]1CC[C@@]2(C)[C@H](CC[C@@H]3[C@@H]2CC[C@]2(C)[C@@H](c4ccc(=O)oc4)C[C@H]4O[C@]342)C1`, the GI50 is 1.77 µM (inactive) in the assay on HT-29; 1.05 µM (active) in the assay with UACC-62; 0.237 µM (active) with MOLT-4; 2.7 µM (inactive) in the assay with SK-MEL-2; 0.392 µM (active) in the assay with CCRF-CEM; 0.646 µM (active) in the assay with EKVX. The GI50 with COLO 205 is 3.15 µM (inactive); with A498, 0.69 µM (active); in the assay on HOP-62 it was 0.521 µM (active); with LOX IMVI it was 0.904 µM (active); with NCI-H522 it was 0.327 µM (active); with HOP-92, 0.92 µM (active). Also, the GI50 in the assay on SNB-19 was 1.82 µM (inactive); with NCI-H226 it was 2.28 µM (inactive); in the assay with RPMI-8226 it was 0.664 µM (active); in the assay on HCT-116, 0.472 µM (active).
